Assay results published in paper PMC7156367, “Cell surface processing of the P1 adhesin of Mycoplasma pneumoniae identifies novel domains that bind host molecules” (Scientific Reports, 2020).
Entries after “also recorded” stand apart in the source; their conditions may differ. Where a SMILES comes first, the peptide text is derived from it. Where no end group is shown, it is not given here. The star is where a group is joined. Biotin = O=C1N[C@H]2[C@H](CS[C@H]2CCCCC(=O)*)N1

Key:
fetuin = target: T1, fetuin (Bos taurus, UniProt P12763); assay: Microscale thermophoresis, binding to fetuin
T1 construct: purchased Sigma F3004
T1 sequence (P12763 19-359): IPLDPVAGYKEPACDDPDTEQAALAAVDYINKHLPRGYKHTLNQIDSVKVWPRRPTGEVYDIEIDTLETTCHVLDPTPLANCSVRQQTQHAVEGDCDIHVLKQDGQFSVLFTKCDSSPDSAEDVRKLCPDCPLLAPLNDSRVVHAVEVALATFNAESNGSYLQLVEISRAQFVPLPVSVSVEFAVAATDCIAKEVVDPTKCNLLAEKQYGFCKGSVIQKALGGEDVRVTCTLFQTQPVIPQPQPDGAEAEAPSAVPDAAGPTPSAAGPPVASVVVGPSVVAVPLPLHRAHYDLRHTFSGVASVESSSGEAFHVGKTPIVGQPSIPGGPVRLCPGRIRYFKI
Procedure: (§1) Binding affinities to fluorescent labelled host proteins was measured by microscale thermophoresis as described in[72]. Microscale thermophoresis was set to 30 s and samples were scanned with 40%, 60% and 80% MST Power. Dissociation constants were determined from generated dissociation curves with set hot/cold or thermophoresis settings. As a control, a scrambled version of the C-terminal P1 peptide ([…]) was synthesised by Chempeptide Limited (China) without any tags and binding affinities was measured.

plasminogen = target: T2, plasminogen (Homo sapiens, UniProt P00747); assay: Microscale thermophoresis, binding to plasminogen
T2 construct: purchased Merck Millipore (Code 528175) or Sigma (Glu-plasminogen, Code P7999); host or cells: human plasma
Procedure: as §1

panel of host proteins = assay: Microtitre binding assays, panel of host proteins; set-up: species or system human; conditions: 15 µg/ml of C-terminal P1 fragments bound to wells
Procedure: (§2) Human proteins used for ELISA include: plasma fibrinogen (Code: F3879), plasma fibronectin (Code: 11051407001), Glu-plasminogen (Code: P7999), vitronectin (Code: SRP3186), laminin (Code: L6274), and lactoferrin (Code: L1294) which were all supplied by Sigma.
(§3) Binding affinity measured by ELISA was performed as described previously. Recombinant protein RP15 was produced as described[55] and both C-terminal peptides were synthesised by Chempeptide Limited (China). P1-30 (^1597[…]^1627) without any tags, but P1-15 (^1613PGAPKPPVQPPKKPA^1627) was sequenced with an N-terminal biotin tag.
(§4) 15 µg/ml of C-terminal P1 fragments were bound to wells and incubated with different host proteins. Wells were then incubated with different antiserum raised against the different host proteins at the following dilutions (all from Sigma): anti-fibrinogen 1:3000, anti-fibronectin 1:1000, anti-plasminogen: 1:2500, anti-vitronectin 1:5000, anti-laminin 1:750, and anti-lactoferrin 1:5,000. These incubations were followed by incubations with anti-rabbit IgG (Dako) or anti-goat IgG (both 1:2,000). Detection was measured by adding Tetramethylbenzidine (Sigma) followed by 1 M HCl, and absorbance was measured at 450 nm (620 nm as reference).

cytokeratin 7 = assay: Affinity chromatography of A549 lysate on P1-15, cytokeratin 7; type: binding, human; conditions: biotinylated P1-15 on avidin agarose vs uncoupled avidin agarose control, native A549 cell lysate
Procedure: (§5) The C-terminal sequence of P1 (P1-15) was synthesised with an N-terminal biotin tag by Chempeptide Limited (China). Affinity chromatography was performed similar to the section above. In brief, 1 mg of the peptide was added to Avidin Agarose beads for 16 h at 4 °C. The beads were washed four times (5 ml per wash) with PBS before being incubated with native A549 cell lysates (harvested in 1% w/v C7BzO in PBS) for 16 h at 4 °C. Non-binding proteins were washed from the column with four washes (5 ml per wash) of PBS and protein complexes with an affinity to the peptide were eluted from the column with 7 M urea, 2 M thiourea, 40 mM Tris-HCl, and 1% (w/v) C7BzO (4 times of 2 ml). Eluents were concentrated with a Macrosep® 3 kDa cutoff centrifugal device (Pall), precipitated with acetone, and separated by 1D-SDS PAGE. The whole lane was divided into sections, in-gel digested with trypsin, and analysed by LC-MS/MS as described above.

plasma fibrinogen = assay: Microtitre plate binding assay (ELISA), fibrinogen; set-up: species or system human; conditions: 15 µg/ml of C-terminal P1 fragments bound to wells, absorbance 450 nm (620 nm reference), eight replicates, P1-15 with N-terminal biotin tag
Procedure: as §2, §3, §4

vimentin = assay: Affinity chromatography of A549 lysate on P1-15, vimentin; type: binding, human; conditions: biotinylated P1-15 on avidin agarose vs uncoupled avidin agarose control, native A549 cell lysate
Procedure: as §5

cytokeratin 18 = assay: Affinity chromatography of A549 lysate on P1-15, cytokeratin 18; type: binding, human; conditions: biotinylated P1-15 on avidin agarose vs uncoupled avidin agarose control, native A549 cell lysate
Procedure: as §5

lactoferrin = assay: Microtitre plate binding assay (ELISA), lactoferrin; set-up: species or system human; conditions: 15 µg/ml of C-terminal P1 fragments bound to wells, absorbance 450 nm (620 nm reference), eight replicates, P1-15 with N-terminal biotin tag
Procedure: as §2, §3, §4

[1] = tested on: glyceraldehyde-3-phosphate dehydrogenase; assay: Affinity chromatography of A549 lysate on P1-15, glyceraldehyde-3-phosphate dehydrogenase; type: binding, human; conditions: slice 3; biotinylated P1-15 on avidin agarose vs uncoupled control; native A549 cell lysate
Procedure: as §5

vitronectin = assay: Microtitre plate binding assay (ELISA), vitronectin; set-up: species or system human; conditions: 15 µg/ml of C-terminal P1 fragments bound to wells, absorbance 450 nm (620 nm reference), eight replicates, P1-15 with N-terminal biotin tag
Procedure: as §2, §3, §4

plasma fibronectin = assay: Microtitre plate binding assay (ELISA), fibronectin; set-up: species or system human; conditions: 15 µg/ml of C-terminal P1 fragments bound to wells, absorbance 450 nm (620 nm reference), eight replicates, P1-15 with N-terminal biotin tag
Procedure: as §2, §3, §4

Glu-plasminogen = assay: Microtitre plate binding assay (ELISA), plasminogen; set-up: species or system human; conditions: 15 µg/ml of C-terminal P1 fragments bound to wells, absorbance 450 nm (620 nm reference), eight replicates, P1-15 with N-terminal biotin tag
Procedure: as §2, §3, §4

cytokeratin 8 = assay: Affinity chromatography of A549 lysate on P1-15, cytokeratin 8; type: binding, human; conditions: biotinylated P1-15 on avidin agarose vs uncoupled avidin agarose control, native A549 cell lysate
Procedure: as §5

laminin = assay: Microtitre plate binding assay (ELISA), laminin; set-up: species or system human; conditions: 15 µg/ml of C-terminal P1 fragments bound to wells, absorbance 450 nm (620 nm reference), eight replicates, P1-15 with N-terminal biotin tag
Procedure: as §2, §3, §4

[2] = set-up: method as in PMID 28894125; conditions: ref [12]; cited from earlier work
Human lactoferrin = target: T3, Human lactoferrin (human, UniProt P02788 20-710); assay: ELISA; 15 µg/ml of C-terminal P1 fragment bound to wells, incubated with host protein at several concentrations; detected with antiserum against the host protein, absorbance at 450 nm; conditions: both partners purified
T3 construct: lactoferrin, human, Sigma L1294; source: bought: Sigma (Code L1294)
T3 sequence (P02788 20-710): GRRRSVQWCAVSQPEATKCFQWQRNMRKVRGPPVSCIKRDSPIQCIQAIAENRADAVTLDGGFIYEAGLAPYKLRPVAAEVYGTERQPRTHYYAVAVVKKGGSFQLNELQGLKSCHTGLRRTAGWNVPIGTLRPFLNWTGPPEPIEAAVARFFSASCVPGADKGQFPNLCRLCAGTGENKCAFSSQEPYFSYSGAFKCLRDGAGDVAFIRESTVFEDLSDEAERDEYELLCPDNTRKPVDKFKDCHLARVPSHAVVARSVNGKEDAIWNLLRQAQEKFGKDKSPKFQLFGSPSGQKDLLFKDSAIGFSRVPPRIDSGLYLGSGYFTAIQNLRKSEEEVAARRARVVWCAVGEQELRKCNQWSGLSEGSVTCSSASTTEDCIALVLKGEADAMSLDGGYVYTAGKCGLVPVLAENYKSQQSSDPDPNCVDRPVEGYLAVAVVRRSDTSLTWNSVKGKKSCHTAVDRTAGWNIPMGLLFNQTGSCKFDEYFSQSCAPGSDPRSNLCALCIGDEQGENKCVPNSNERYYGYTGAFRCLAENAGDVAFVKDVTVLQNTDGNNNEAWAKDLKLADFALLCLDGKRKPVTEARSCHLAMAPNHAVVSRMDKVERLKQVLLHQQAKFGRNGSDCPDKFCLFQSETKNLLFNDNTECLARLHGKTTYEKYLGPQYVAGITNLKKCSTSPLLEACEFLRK

Human vitronectin = target: T4, Human vitronectin (human, UniProt P04004 20-478); assay: as above; conditions: both partners purified
T4 construct: vitronectin, human, Sigma SRP3186; source: bought: Sigma (Code SRP3186)
T4 sequence (P04004 20-478): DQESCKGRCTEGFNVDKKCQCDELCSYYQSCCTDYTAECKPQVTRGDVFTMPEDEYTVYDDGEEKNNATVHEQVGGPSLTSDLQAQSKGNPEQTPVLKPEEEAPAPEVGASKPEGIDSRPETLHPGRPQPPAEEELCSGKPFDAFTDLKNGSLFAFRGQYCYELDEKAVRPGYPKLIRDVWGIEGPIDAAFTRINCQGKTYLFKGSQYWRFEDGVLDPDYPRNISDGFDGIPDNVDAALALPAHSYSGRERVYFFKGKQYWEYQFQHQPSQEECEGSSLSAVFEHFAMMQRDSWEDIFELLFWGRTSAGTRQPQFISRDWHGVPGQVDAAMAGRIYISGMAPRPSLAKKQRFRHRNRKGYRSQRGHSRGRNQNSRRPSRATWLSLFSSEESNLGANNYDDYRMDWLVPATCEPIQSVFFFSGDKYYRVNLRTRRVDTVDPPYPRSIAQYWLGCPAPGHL

A549 human lung cells = assay: Binding to immobilised A549 human lung cells (microtitre plate); type: cell-based; conditions: 10 µg/ml; detection with antiserum against RP15 (1:100), absorbance 450 nm; eight replicates
Procedure: Freshly grown A549 cells were immobilised in 96-well microtitre plates as described in[17]. Immobilised A549 cells were incubated with 10 µg/ml of either RP15, P1-30, or P1-15 and binding affinity was measured with antiserum raised against RP15 (1:100) as described above. Absorbance detection at 450 nm is the same as described above.

[3] = target: T5, Fetuin, fluorescent labelled (microscale thermophoresis) (bovine, UniProt P12763 19-359, fluorescent label); assay: MST; fluorescent labelled host protein, peptide titrated; thermophoresis 30 s, 40%, 60% and 80% MST power; conditions: both partners purified
T5 construct: fetuin
T5 sequence (looked up): T1 sequence (P12763 19-359)

[4] = listed as 1613PGAPKPPVQPPKKPA^1627

PKPPRAAPPKAPTPVPPGPASPVKKPKQAPG [scrambled version of P1-30, scrambled version of the C-terminal P1 peptide ([…])]
binding affinity in words, fetuin (fetuin): No binding affinity could be detected
KD, fetuin (fetuin; fluorescent labelled host protein, 30 s, 40%, 60% and 80% MST Power): could not be assigned a KD value
binding affinity in words, plasminogen (plasminogen; microscale thermophoresis): No binding affinity could be detected
KD, plasminogen (plasminogen; microscale thermophoresis, fluorescent labelled host protein, 30 s, 40%, 60% and 80% MST Power): could not be assigned a KD value

CC(C)[C@H](NC(=O)[C@@H]1CCCN1C(=O)[C@@H]1CCCN1C(=O)[C@H](CCCCN)NC(=O)[C@@H]1CCCN1C(=O)[C@H](C)NC(=O)CNC(=O)[C@@H]1CCCN1C(=O)[C@H](CCCCN)NC(=O)[C@@H]1CCCN1C(=O)[C@@H]1CCCN1C(=O)[C@@H](NC(=O)[C@@H]1CCCN1C(=O)[C@@H]1CCCN1C(=O)[C@H](CCCNC(=N)N)NC(=O)[C@@H]1CCCN1C(=O)[C@H](C)NC(=O)CNC(=O)[C@@H]1CCCN1C(=O)[C@H](CCCCN)NC(=O)[C@H](C)NC(=O)[C@H](C)NC(=O)[C@H](CO)NC(=O)[C@@H](N)[C@@H](C)O)C(C)C)C(=O)N[C@@H](CCC(N)=O)C(=O)N1CCC[C@H]1C(=O)N1CCC[C@H]1C(=O)N[C@@H](CCCCN)C(=O)N[C@@H](CCCCN)C(=O)N1CCC[C@H]1C(=O)N[C@@H](C)C(=O)O [P1-30] (H-TSAAKPGAPRPPVPPKPGAPKPPVQPPKKPA-OH)
Kd (plasminogen): 0.554 ± 0.0021 µM

PGAPKPPVQPPKKPA [P1-15, C-terminal 15 amino acids of P1, synthesised chemically, N-terminal biotin tag]
binding to panel of host molecules (panel of host proteins): bind a range of host molecules in a dose dependent manner
selective recovery / binding, cytokeratin 7 (cytokeratin 7): selectively recovered
selective recovery / binding, cytokeratin 7 (cytokeratin 7; [4]): selectively bound
binding to fibrinogen (plasma fibrinogen): failed to bind laminin, lactoferrin, fibronectin, and fibrinogen
selective recovery / binding, vimentin (vimentin): selectively recovered
selective recovery / binding, vimentin (vimentin; [4]): selectively bound
selective recovery / binding, cytokeratin 18 (cytokeratin 18): selectively recovered
selective recovery / binding, cytokeratin 18 (cytokeratin 18; [4]): selectively bound
binding to lactoferrin (lactoferrin): failed to bind laminin, lactoferrin
recovery of glyceraldehyde-3-phosphate dehydrogenase [1]: also identified in the eluents from the control
binding to vitronectin (vitronectin): also bound to vitronectin
binding to fibronectin (plasma fibronectin): failed to bind laminin, lactoferrin, fibronectin
binding to plasminogen (Glu-plasminogen): only bound plasminogen in a dose dependent manner; also recorded: bound plasminogen in a dose-responsive manner
selective recovery / binding, cytokeratin 8 (cytokeratin 8): selectively recovered
selective recovery / binding, cytokeratin 8 (cytokeratin 8; [4]): selectively bound
binding to laminin (laminin): failed to bind laminin

elongation factor Tu [Ef-Tu]
affinity to heparin [2]: strong affinity to heparin

B1: Recombinant protein RP15 (C-terminal region of P1 adhesin) (domain or fragment)
chain: DYVLPLAITVPIVVIVLSVTLGLAIGIPMHKNKQALKAGFALSNQKVDVLTKAVGSVFKEIINRTGISQAPKRLKQTSAAKPGAPRPPVPPKPGAPKPPVQPPKKPA
notes: P1 adhesin (Mpn141) of M. pneumoniae, residues 1521-1627
binding to panel of host molecules (panel of host proteins): bind a range of host molecules in a dose dependent manner; also recorded: most consistent and most diverse binding capabilities
binding result (Human lactoferrin): binds
binding result (Human vitronectin): binds
binding to fibrinogen (plasma fibrinogen): bound lactoferrin, vitronectin, plasminogen, fibronectin, and fibrinogen
binding to fibrinogen (plasma fibrinogen; listed as RP-15): bound fibronectin and fibrinogen more strongly than P1-30
binding to lactoferrin (lactoferrin): bound lactoferrin
binding to vitronectin (vitronectin): bound lactoferrin, vitronectin
binding to fibronectin (plasma fibronectin): bound lactoferrin, vitronectin, plasminogen, fibronectin
binding to fibronectin (plasma fibronectin; listed as RP-15): bound fibronectin and fibrinogen more strongly than P1-30
binding to plasminogen (Glu-plasminogen): bound lactoferrin, vitronectin, plasminogen
binding to plasminogen (Glu-plasminogen; listed as RP-15): bound it more strongly
binding to immobilised A549 cells (A549 human lung cells): bound immobilised A549 cells; also recorded: observed to bind immobilised A549 cells
binding to laminin (laminin): Only M. pneumoniae cells bound laminin

B2: P1-15, synthetic C-terminal peptide of P1 adhesin with N-terminal biotin (peptide)
peptide: Biotin-PGAPKPPVQPPKKPA
notes: P1 adhesin (Mpn141) of M. pneumoniae, residues 1613-1627; also called C-terminal 15 amino acids; source: synthetic peptide (Chempeptide Limited, China)
binding result (Human vitronectin): binds

B3: P1-30, synthetic C-terminal peptide of P1 adhesin (peptide)
peptide: TSAAKPGAPRPPVPPKPGAPKPPVQPPKKPA
notes: P1 adhesin (Mpn141) of M. pneumoniae, residues 1597-1627; without any tags; also called C-terminal 30 amino acids; P1 tail; source: synthetic peptide (Chempeptide Limited, China)
Kd [3]: 2.4 ± 0.7 µM

B4: rPdhB: Recombinant pyruvate dehydrogenase subunit B of M. pneumoniae (positive control) (protein, UniProt P75391 1-327, looked up)
Pyruvate dehydrogenase E1 …: MSKTIQANNIEALGNAMDLALERDPNVVLYGQDAGFEGGVFRATKGLQKKYGEERVWDCPIAEAAMAGIGVGAAIGGLKPIVEIQFSGFSFPAMFQIFTHAARIRNRSRGVYTCPIIVRMPMGGGIKALEHHSETLEAIYGQIAGLKTVMPSNPYDTKGLFLAAVESPDPVVFFEPKKLYRAFRQEIPADYYTVPIGQANLISQGNNLTIVSYGPTMFDLINMVYGGELKDKGIELIDLRTISPWDKETVFNSVKKTGRLLVVTEAAKTFTTSGEIIASVTEELFSYLKAAPQRVTGWDIVVPLARGEHYQFNLNARILEAVNQLLK
binding to immobilised A549 cells (A549 human lung cells): bound immobilised A549 cells
